Results taken from patent US20070167526A1, “Topical mecamylamine formulations for ocular administration and uses thereof” (priority 2005, published 2007).
Like-named read-outs stand apart in the source and are kept apart here.

Columns and labels:
[1] = 6-hour ocular pharmacokinetics of 2% Mecamylamine GELRITE solution following topical instillation (Example 10); type: in vivo, New Zealand White rabbit; conditions: rabbit; for concentration at 6 h / concentration at 1 h / concentration at 3 h: female, New Zealand White, topical; for Mecamylamine concentration in blood Cell Fraction, Mean / Mecamylamine concentration in blood Plasma, Mean: Pre
Description: The time of each dose administration was recorded. There was no mortality in the treatment group.

[2] = tested on: VEGF-induced endothelial tube formation; assay: VEGF-induced endothelial tube formation in vitro; type: cell-based
[3] = cited from earlier work

CNC1(C)C2CCC(C2)C1(C)C (centres unmarked) [mecamylamine, N-2,3,3-tetramethylbicyclo(2.2.1)heptan-2-amine]
concentration at 6 h ([1]; blood cell fraction, group MEC OU 6 hr, Post, read-out: Mecamylamine concentration in blood Cell Fraction, Mean): 1.2 ng/mL | concentration at 1 h ([1]; choroid (treated eye), 2% in GELRITE, 2 × 50 μL, OS (unilateral) treated eye, 1 hr, read-out: Mecamylamine concentration in Choroid, Mean): ~2800 ng/g | concentration at 1 h ([1]; choroid of the fellow (vehicle) eye, fellow (vehicle) eye of unilaterally dosed animals, 1 hr, read-out: Mecamylamine concentration in Choroid, Mean): ~700 ng/g | concentration at 1 h ([1]; choroid, 2% in GELRITE, 2 × 50 μL, OU (bilateral), 1 hr, read-out: Mecamylamine concentration in Choroid, Mean): ~14000 ng/g | concentration at 6 h ([1]; choroid, 2% in GELRITE, 2 × 50 μL, OU (bilateral), 6 hr, read-out: Mecamylamine concentration in Choroid, Mean): ~260 ng/g | concentration at 1 h ([1]; cornea, 2% in GELRITE, 2 × 50 μL, OS (unilateral) treated eye, 1 hr, read-out: Mecamylamine concentration in Cornea, Mean): 9600 ng/g | concentration at 1 h ([1]; cornea, 2% in GELRITE, 2 × 50 μL, OU (bilateral), 1 hr, read-out: Mecamylamine concentration in Cornea, Mean): 17900 ng/g | concentration at 3 h ([1]; cornea, 2% in GELRITE, 2 × 50 μL, OU (bilateral), 3 hr, read-out: Mecamylamine concentration in Cornea, Mean): 3820 ng/g | concentration at 6 h ([1]; cornea, 2% in GELRITE, 2 × 50 μL, OU (bilateral), 6 hr, read-out: Mecamylamine concentration in Cornea, Mean): 1230 ng/g | concentration at 1 h ([1]; cornea, fellow (vehicle) eye of unilaterally dosed animals, 1 hr, read-out: Mecamylamine concentration in Cornea, Mean): 652 ng/g | concentration at 1 h ([1]; plasma, group MEC OS 1 hr, Post, read-out: Mecamylamine concentration in blood Plasma, Mean): 16.3 ng/mL | concentration at 1 h ([1]; plasma, group MEC OU 1 hr, Post, read-out: Mecamylamine concentration in blood Plasma, Mean): 37.8 ng/mL | concentration at 3 h ([1]; plasma, group MEC OU 3 hr, Post, read-out: Mecamylamine concentration in blood Plasma, Mean): 8.3 ng/mL | concentration at 6 h ([1]; plasma, group MEC OU 6 hr, Post, read-out: Mecamylamine concentration in blood Plasma, Mean): 0.3 ng/mL | concentration at 1 h ([1]; retina, 2% in GELRITE, 2 × 50 μL, OS (unilateral) treated eye, 1 hr, read-out: Mecamylamine concentration in Retina, Mean): 4160 ng/g | concentration at 1 h ([1]; retina, 2% in GELRITE, 2 × 50 μL, OU (bilateral), 1 hr, read-out: Mecamylamine concentration in Retina, Mean): 14700 ng/g | concentration at 3 h ([1]; retina, 2% in GELRITE, 2 × 50 μL, OU (bilateral), 3 hr, read-out: Mecamylamine concentration in Retina, Mean): 563 ng/g | concentration at 6 h ([1]; retina, 2% in GELRITE, 2 × 50 μL, OU (bilateral), 6 hr, read-out: Mecamylamine concentration in Retina, Mean): 310 ng/g | concentration at 1 h ([1]; retina, fellow (vehicle) eye of unilaterally dosed animals, 1 hr, read-out: Mecamylamine concentration in Retina, Mean): 781 ng/g | concentration at 1 h ([1]; vitreous humor, 2% in GELRITE, 2 × 50 μL, OS (unilateral) treated eye, 1 hr, read-out: Mecamylamine concentration in Vitreous humor, Mean): 37.8 ng/g | concentration at 1 h ([1]; vitreous humor, 2% in GELRITE, 2 × 50 μL, OU (bilateral), 1 hr, read-out: Mecamylamine concentration in Vitreous humor, Mean): 131 ng/g | concentration at 3 h ([1]; vitreous humor, 2% in GELRITE, 2 × 50 μL, OU (bilateral), 3 hr, read-out: Mecamylamine concentration in Vitreous humor, Mean): 17.7 ng/g | concentration at 6 h ([1]; vitreous humor, 2% in GELRITE, 2 × 50 μL, OU (bilateral), 6 hr, read-out: Mecamylamine concentration in Vitreous humor, Mean): 5.9 ng/g | concentration at 1 h ([1]; vitreous humor, fellow (vehicle) eye of unilaterally dosed animals, 1 hr, read-out: Mecamylamine concentration in Vitreous humor, Mean): 10.4 ng/g | Mecamylamine concentration in Choroid, Mean ([1]; 2% in GELRITE, 2 × 50 μL, OS (unilateral) treated eye, 1 hr, listed as MEC): 2806.7 ng/g | Mecamylamine concentration in Choroid, Mean ([1]; 2% in GELRITE, 2 × 50 μL, OU (bilateral), 1 hr, listed as MEC): 14170.0 ng/g | Mecamylamine concentration in Choroid, Mean ([1]; 2% in GELRITE, 2 × 50 μL, OU (bilateral), 3 hr): ~500 ng/g | Mecamylamine concentration in Choroid, Mean ([1]; 2% in GELRITE, 2 × 50 μL, OU (bilateral), 3 hr, listed as MEC): 1086.0 ng/g | Mecamylamine concentration in Choroid, Mean ([1]; 2% in GELRITE, 2 × 50 μL, OU (bilateral), 6 hr, listed as MEC): 264.5 ng/g | Mean levels in the plasma and packed cells ([1]; 2% in GELRITE, highest one hour after bilateral dosing): 5 to 38 ng/mL | Mecamylamine concentration in Choroid, Mean ([1]; fellow (vehicle) eye of unilaterally dosed animals, 1 hr, listed as MEC): 705.7 ng/g | Mecamylamine concentration in blood Cell Fraction, Mean ([1]; group MEC OS 1 hr): 0.0 ng/mL | Mecamylamine concentration in blood Plasma, Mean ([1]; group MEC OS 1 hr): 0.0 ng/mL | Mecamylamine concentration in blood Cell Fraction, Mean ([1]; group MEC OU 1 hr): 0.0 ng/mL | Mecamylamine concentration in blood Plasma, Mean ([1]; group MEC OU 1 hr): 0.0 ng/mL | Mecamylamine concentration in blood Cell Fraction, Mean ([1]; group MEC OU 3 hr): 0.0 ng/mL | Mecamylamine concentration in blood Plasma, Mean ([1]; group MEC OU 3 hr): 0.0 ng/mL | Mecamylamine concentration in blood Cell Fraction, Mean ([1]; group MEC OU 6 hr): 0.0 ng/mL | Mecamylamine concentration in blood Plasma, Mean ([1]; group MEC OU 6 hr): 0.0 ng/mL | VEGF-induced endothelial tube formation [2]: inhibited | pka [3]: ~11.2
